Data taken from publication PMC4080982, “Interactions of antagonists with subtypes of inositol 1,4,5-trisphosphate (IP3) receptor” (British Journal of Pharmacology, 2014).

Experiments:
[1] = molecular target: T1, rat IP3R1 (Rattus norvegicus, UniProt P29994); assay: IP3-evoked Ca^2+ release from permeabilized DT40-IP3R1 cells; format: cell-based; conditions: IP3R1
T1 construct: different for NTs (NT2 > NT1 > > NT3) and full-length IP3Rs (IP3R3 > IP3R1 ≥ IP3R2); expressed in transfected cells
Experimental: (§1) We used DT40 cells lacking endogenous IP3Rs (Sugawara et al., [1997]), but stably expressing rat IP3R1 (GenBank accession number GQ233032.1; Pantazaka and Taylor, [2011]), mouse IP3R2 (GU980658.1; Tovey et al., [2010]) or rat IP3R3 (GQ233031.1; Rahman et al., [2009]). Cells were grown in suspension in RPMI 1640 medium supplemented with 10% FBS, 1% heat-inactivated chicken serum, 2 mM glutamine and 50 μM 2-mercaptoethanol at 37°C in humidified air containing 5% CO2. Cells were used or passaged when they reached a density of ∼1.5 × 10^6 cells mL^−1.
(§2) A low-affinity Ca^2+ indicator trapped within the ER of permeabilized DT40 cells was used to measure IP3-evoked Ca^2+ release (Tovey et al., [2006]; Saleem et al., [2012]). Briefly, the ER was loaded with indicator by incubating cells (∼5 × 10^7 mL^−1) in the dark with Mag-fluo-4AM (20 μM) in HEPES-buffered saline (HBS) containing 0.02% (v/v) Pluronic F127 for 1 h at 22°C. HBS had the following composition: 135 mM NaCl, 5.9 mM KCl, 11.6 mM HEPES, 1.5 mM CaCl2, 11.5 mM glucose, 1.2 mM MgCl2, pH 7.3. After permeabilization of the plasma membrane with saponin (10 μg·mL^−1, 4 min, 37°C) in Ca^2+-free cytosol-like medium (CLM), permeabilized cells were washed (650× g, 2 min) and resuspended (∼10^7 mL^−1) in Mg^2+-free CLM containing carbonyl cyanide 4-(trifluoromethoxy) phenylhydrazone (FCCP, 10 μM) to inhibit mitochondria, and supplemented with CaCl2 to give a final free [Ca^2+] of 220 nM after addition of 1.5 mM MgATP. Ca^2+-free CLM had the following composition: 2 mM NaCl, 140 mM KCl, 1 mM EGTA, 20 mM PIPES, 2 mM MgCl2, pH 7.0. Permeabilized cells were then distributed into 96-well plates (50 μL, 5 × 10^5 cells per well), centrifuged (300× g, 2 min) and used for experiments at 20°C. Addition of MgATP (1.5 mM) allowed Ca^2+ uptake by the ER, which was monitored at intervals of ∼1 s using a FlexStation-3 plate reader (MDS Analytical Devices, Berkshire, UK; Tovey et al., [2006]). After 2 min, when the ER had loaded to steady-state with Ca^2+, IP3 was added with CPA (10 μM) to inhibit further Ca^2+ uptake. IP3-evoked Ca^2+ release was expressed as a fraction of that released by ionomycin (1 μM; Tovey et al., [2006]). Similar methods were used to measure IP3-evoked Ca^2+ release from intact or permeabilized HEK cells (Tovey et al., [2008]). The timings of antagonist additions are described in the figure legends. The affinity of each competitive antagonist (pKD) was determined from the intercept on the abscissa of the Schild plot.
(§3) Concentration–effect relationships were fitted to Hill equations using Prism (version 5.0, GraphPad, San Diego, CA, USA), from which Hill coefficients (h), the fraction of the intracellular Ca^2+ stores released by a maximally effective concentrations of IP3, and pEC50 values were calculated.

[2] = molecular target: T2, mouse IP3R2 (Mus musculus, UniProt Q9Z329); assay: IP3-evoked Ca^2+ release from permeabilized DT40-IP3R2 cells; format: cell-based; conditions: IP3R2
T2 construct: different for NTs (NT2 > NT1 > > NT3) and full-length IP3Rs (IP3R3 > IP3R1 ≥ IP3R2); expressed in transfected cells
Experimental: as §1, §2, §3

[3] = molecular target: T3, rat IP3R3 (Rattus norvegicus, UniProt Q63269); assay: IP3-evoked Ca^2+ release from permeabilized DT40-IP3R3 cells; format: cell-based; conditions: IP3R3
T3 construct: different for NTs (NT2 > NT1 > > NT3) and full-length IP3Rs (IP3R3 > IP3R1 ≥ IP3R2); expressed in transfected cells
Experimental: as §1, §2, §3

[4] = tested on: permeabilized DT40-IP3R1-3 cells; assay: Ca^2+ uptake and Ca^2+ content of the intracellular stores of permeabilized DT40 cells; format: cell-based; conditions: permeabilized DT40 cells, 5 min pre-incubation
Experimental: Briefly, the ER was loaded with indicator by incubating cells (∼5 × 10^7 mL^−1) in the dark with Mag-fluo-4AM (20 μM) in HEPES-buffered saline (HBS) containing 0.02% (v/v) Pluronic F127 for 1 h at 22°C. […] Ca^2+-free CLM had the following composition: 2 mM NaCl, 140 mM KCl, 1 mM EGTA, 20 mM PIPES, 2 mM MgCl2, pH 7.0. Permeabilized cells were then distributed into 96-well plates (50 μL, 5 × 10^5 cells per well), centrifuged (300× g, 2 min) and used for experiments at 20°C. […] After 2 min, when the ER had loaded to steady-state with Ca^2+, IP3 was added with CPA (10 μM) to inhibit further Ca^2+ uptake. […] The timings of antagonist additions are described in the figure legends. The affinity of each competitive antagonist (pKD) was determined from the intercept on the abscissa of the Schild plot.

[5] = tested on: HEK cells; assay: IP3-evoked Ca^2+ release from permeabilized HEK cells; format: cell-based; conditions: 5 min
Experimental: as §2, with “Ca^2+-free CLM had the following composition: 2 mM NaCl, 140 mM KCl, 1 mM EGTA, 20 mM PIPES, 2 mM MgCl2, pH 7.0. Permeabilized cells were then distributed into 96-well plates (50 μL, 5 × 10^5 cells per well), centrifuged (300× g, 2 min) and used for experiments at 20°C.” left out, “After 2 min, when the ER had loaded to steady-state with Ca^2+, IP3 was added with CPA (10 μM) to inhibit further Ca^2+ uptake.” left out, “Similar methods were used to measure IP3-evoked Ca^2+ release from intact or permeabilized HEK cells (Tovey et al., [2008]). The timings of antagonist additions are described in the figure legends.” left out

[6] = tested on: HEK cells; assay: Steady-state Ca^2+ content of the intracellular stores of permeabilized HEK cells; format: cell-based; conditions: 5 min
Experimental: as §2, with “Ca^2+-free CLM had the following composition: 2 mM NaCl, 140 mM KCl, 1 mM EGTA, 20 mM PIPES, 2 mM MgCl2, pH 7.0. Permeabilized cells were then distributed into 96-well plates (50 μL, 5 × 10^5 cells per well), centrifuged (300× g, 2 min) and used for experiments at 20°C.” left out, “After 2 min, when the ER had loaded to steady-state with Ca^2+, IP3 was added with CPA (10 μM) to inhibit further Ca^2+ uptake.” left out, “Similar methods were used to measure IP3-evoked Ca^2+ release from intact or permeabilized HEK cells (Tovey et al., [2008]). The timings of antagonist additions are described in the figure legends.” left out

[7] = tested on: HEK cells; assay: Carbachol-evoked Ca^2+ signals in intact HEK cells; format: cell-based; conditions: intact HEK cells; Xestospongin 10 μM for 30 min
Experimental: as §2

[8] = tested on: HEK cells; set-up: method as in Kurian et al., [2009]; conditions: Xestospongin C 10 μM for 30 min in Ca^2+-free medium, ref Kurian et al., [2009]; cited from earlier work
[9] = tested on: cerebellar microsomes; set-up: method as in Gafni et al., [1997]; conditions: ref Gafni et al., [1997], read-out: IC50, inhibition of IP3-evoked Ca^2+ release; cited from earlier work
[10] = 10 µM, 5 min, purified (Gafni et al., 1997)
[11] = 10 µM, 5 min, source Calbiochem
[12] = 20 µM, 7 min, purified (Gafni et al., 1997)
[13] = 20 µM, 12 min, purified (Gafni et al., 1997)
[14] = Xestospongin 20 μM, pooled 7 and 12 min
[15] = Xestospongin 20 μM, pooled from 7 and 12 min pre-incubation
[16] = 5 µM, 5 min, purified (Gafni et al., 1997)
[17] = Xestospongin C 5–20 μM from either source, 5–12 min before IP3

T2 sequence (Q9Z329 whole entry): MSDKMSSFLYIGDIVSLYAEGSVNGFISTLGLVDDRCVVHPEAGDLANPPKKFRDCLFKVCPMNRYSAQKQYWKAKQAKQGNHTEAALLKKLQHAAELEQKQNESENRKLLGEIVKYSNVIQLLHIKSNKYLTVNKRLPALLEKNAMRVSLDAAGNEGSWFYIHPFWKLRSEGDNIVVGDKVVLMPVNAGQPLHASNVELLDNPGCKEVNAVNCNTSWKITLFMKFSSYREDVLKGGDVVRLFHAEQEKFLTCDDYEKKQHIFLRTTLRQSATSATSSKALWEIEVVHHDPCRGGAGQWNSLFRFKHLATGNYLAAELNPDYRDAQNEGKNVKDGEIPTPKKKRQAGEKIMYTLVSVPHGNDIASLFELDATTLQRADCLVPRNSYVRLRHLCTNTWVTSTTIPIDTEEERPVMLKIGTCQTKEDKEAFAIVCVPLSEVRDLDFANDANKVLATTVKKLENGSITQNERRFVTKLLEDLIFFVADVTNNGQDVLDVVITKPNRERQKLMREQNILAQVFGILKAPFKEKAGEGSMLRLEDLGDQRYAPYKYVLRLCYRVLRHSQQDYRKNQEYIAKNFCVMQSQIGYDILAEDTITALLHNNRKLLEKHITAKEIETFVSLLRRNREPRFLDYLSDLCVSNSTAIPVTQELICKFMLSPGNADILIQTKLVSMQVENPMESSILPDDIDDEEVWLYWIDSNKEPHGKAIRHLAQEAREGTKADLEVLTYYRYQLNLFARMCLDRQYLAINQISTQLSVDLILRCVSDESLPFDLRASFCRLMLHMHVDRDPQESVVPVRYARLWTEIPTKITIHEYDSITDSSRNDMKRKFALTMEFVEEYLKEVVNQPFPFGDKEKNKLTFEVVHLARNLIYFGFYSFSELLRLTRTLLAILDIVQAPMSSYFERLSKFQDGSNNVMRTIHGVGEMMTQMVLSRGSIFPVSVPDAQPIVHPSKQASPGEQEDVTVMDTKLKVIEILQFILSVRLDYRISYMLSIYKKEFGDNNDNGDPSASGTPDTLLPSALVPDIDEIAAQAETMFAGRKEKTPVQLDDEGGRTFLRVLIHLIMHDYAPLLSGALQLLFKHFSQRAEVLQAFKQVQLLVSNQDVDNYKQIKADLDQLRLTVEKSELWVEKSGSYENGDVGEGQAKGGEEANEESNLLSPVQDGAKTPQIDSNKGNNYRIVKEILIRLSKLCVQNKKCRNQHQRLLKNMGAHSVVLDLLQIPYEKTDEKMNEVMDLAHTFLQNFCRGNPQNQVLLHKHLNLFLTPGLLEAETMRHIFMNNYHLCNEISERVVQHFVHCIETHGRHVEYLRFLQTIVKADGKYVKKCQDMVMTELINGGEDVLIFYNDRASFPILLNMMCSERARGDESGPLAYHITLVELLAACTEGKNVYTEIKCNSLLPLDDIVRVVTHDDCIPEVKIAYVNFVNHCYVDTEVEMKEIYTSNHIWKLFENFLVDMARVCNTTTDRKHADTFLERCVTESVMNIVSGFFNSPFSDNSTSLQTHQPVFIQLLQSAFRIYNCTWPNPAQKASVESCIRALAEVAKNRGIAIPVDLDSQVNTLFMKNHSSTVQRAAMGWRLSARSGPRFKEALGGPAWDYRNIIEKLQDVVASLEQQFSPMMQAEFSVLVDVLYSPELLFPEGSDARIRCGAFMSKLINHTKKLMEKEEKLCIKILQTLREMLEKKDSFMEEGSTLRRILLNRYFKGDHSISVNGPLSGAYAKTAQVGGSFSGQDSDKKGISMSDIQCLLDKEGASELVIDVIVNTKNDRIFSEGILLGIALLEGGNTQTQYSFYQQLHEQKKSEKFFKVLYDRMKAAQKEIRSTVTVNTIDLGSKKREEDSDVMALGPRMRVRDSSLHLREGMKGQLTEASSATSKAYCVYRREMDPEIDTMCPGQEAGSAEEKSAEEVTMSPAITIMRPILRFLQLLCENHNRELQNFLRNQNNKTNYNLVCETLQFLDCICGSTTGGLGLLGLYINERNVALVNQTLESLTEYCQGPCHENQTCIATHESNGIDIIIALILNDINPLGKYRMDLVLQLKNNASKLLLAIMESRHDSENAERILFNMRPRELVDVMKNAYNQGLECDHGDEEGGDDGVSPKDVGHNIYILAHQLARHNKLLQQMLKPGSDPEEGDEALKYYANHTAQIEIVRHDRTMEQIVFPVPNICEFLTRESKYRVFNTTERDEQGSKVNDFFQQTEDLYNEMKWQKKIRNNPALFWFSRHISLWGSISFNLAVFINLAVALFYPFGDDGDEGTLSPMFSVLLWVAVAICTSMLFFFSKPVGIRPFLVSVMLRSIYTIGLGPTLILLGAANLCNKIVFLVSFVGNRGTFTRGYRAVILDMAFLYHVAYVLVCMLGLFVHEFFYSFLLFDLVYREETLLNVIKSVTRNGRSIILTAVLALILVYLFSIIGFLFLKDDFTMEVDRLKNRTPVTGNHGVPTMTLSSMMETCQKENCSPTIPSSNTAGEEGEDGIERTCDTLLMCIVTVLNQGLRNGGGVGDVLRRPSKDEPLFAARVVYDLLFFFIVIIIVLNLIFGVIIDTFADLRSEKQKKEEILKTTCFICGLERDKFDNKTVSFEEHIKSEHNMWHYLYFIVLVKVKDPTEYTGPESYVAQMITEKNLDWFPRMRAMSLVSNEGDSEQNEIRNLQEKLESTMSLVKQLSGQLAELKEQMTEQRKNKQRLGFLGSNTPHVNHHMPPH

Molecule `O[C@@]12CCCCCC[C@H]3CCN4CCC[C@H](CCCCCC[C@H]5CCN(CCC1)[C@@H]2O5)[C@H]4O3` [Xestospongin D] has a ΔMax [1, 10] of 15 ± 4 %, a ΔpEC50 [1, 10] of -0.02 ± 0.10 M⁻¹ and a ΔMax [1, 11] of 17 ± 6 %. The ΔpEC50 [1, 11] was 0.28 ± 0.13 M⁻¹, the ΔMax [1, 12] was 18 ± 5 % and the ΔpEC50 [1, 12] was 0.37 ± 0.11 M⁻¹. The ΔMax [1, 13] was 18 ± 1 %, the ΔpEC50 [1, 13] was 0.14 ± 0.12 M⁻¹ and the ΔMax [1, 14] was 18 ± 2 %. For the same molecule, the ΔpEC50 [1, 15] was 0.26 ± 0.09 M, the “effect on IP3-evoked Ca^2+ release” value ([1]; Xestospongin D 10–20 μM from either source, 5–12 min) was “modest, but statistically significant” and the ΔMax [2, 10] was 2 ± 3%. The ΔpEC50 [2, 10] was -0.07 ± 0.07, the ΔMax [2, 11] was 2 ± 4% and the ΔpEC50 [2, 11] was 0.25 ± 0.22. It also gave a ΔMax [2, 12] of 5 ± 2%, a ΔpEC50 [2, 12] of -0.06 ± 0.04 and a ΔMax [2, 13] of 11 ± 5%. For the same molecule, the ΔpEC50 [2, 13] was -0.23 ± 0.06, the ΔMax [2, 14] was 8 ± 3 % and the ΔpEC50 [2, 14] was −0.15 ± 0.05. For the same molecule, the ΔpEC50 ([2]; Xestospongin 20 μM, pooled 7 and 12 min, listed as XeD) was -0.15 ± 0.05, the ΔMax [3, 10] was 8 ± 8% and the ΔpEC50 [3, 10] was 0.16 ± 0.26 M⁻¹. For the same molecule, the ΔMax [3, 11] was 12 ± 1 %, the ΔpEC50 [3, 11] was 0.03 ± 0.04 M⁻¹ and the ΔMax [3, 12] was 4 ± 2%. The ΔpEC50 [3, 12] was 0.39 ± 0.10 M⁻¹, the ΔMax [3, 13] was -1 ± 0% and the ΔpEC50 [3, 13] was 0.03 ± 0.08 M⁻¹. For the same molecule, the ΔMax [3, 14] was 2 ± 2%, the ΔpEC50 [3, 14] was 0.21 ± 0.10 M and the “effect on Ca^2+ content of the intracellular stores” value ([4]; 10 μM purified Xestospongin D) was “no effect”. The “effect on Ca^2+ release evoked by IP3” value ([5]; Xestospongin D 10 μM) was “no effect”, the “effect on Ca^2+ content of the intracellular stores” value ([6]; Xestospongin D 10 μM) was “no effect” and the “effect on Ca^2+ signals evoked by carbachol” value [7] was “no significant effect”.
In the case of `C1CCC[C@H]2CCCN3CC[C@@H](CCCCCC[C@@H]4CCCN5CC[C@@H](CC1)O[C@@H]45)O[C@@H]23` [Xestospongin C], the ΔMax [1, 16] is reported as 2 ± 2%, the ΔpEC50 ([1]; 5 µM, 5 min, purified as described (Gafni et al., 1997)) is reported as -0.12 ± 0.12 M⁻¹ and the ΔMax ([1]; 5 µM, 5 min, source Calbiochem) is reported as 2 ± 1%. For the same molecule, the ΔpEC50 ([1]; 5 µM, 5 min, source Calbiochem) was 0.09 ± 0.07 M⁻¹, the ΔMax [1, 12] was 9 ± 3 % and the ΔpEC50 [1, 12] was 0.08 ± 0.07 M⁻¹. For the same molecule, the ΔMax [1, 13] was 4 ± 3%, the ΔpEC50 [1, 13] was 0.33 ± 0.18 M⁻¹ and the ΔMax [1, 14] was 6 ± 2 %. The ΔpEC50 [1, 15] was 0.21 ± 0.10 M, the “effect on IP3-evoked Ca^2+ release” value [1, 17] was “no significant effect” and the ΔMax [2, 16] was 0 ± 4%. For the same molecule, the ΔMax ([2]; 5 µM, 5 min, source Calbiochem) was 5 ± 6%, the ΔMax [2, 12] was 2 ± 2% and the ΔMax [2, 13] was 1 ± 2%. For the same molecule, the ΔMax [2, 14] was 1 ± 1%, the “effect on IP3-evoked Ca^2+ release” value [2, 17] was “no significant effect” and the ΔMax [3, 16] was 3 ± 14%. It also gave a ΔpEC50 [3, 16] of 0.02 ± 0.09 M⁻¹, a ΔMax ([3]; 5 µM, 5 min, source Calbiochem) of 15 ± 7% and a ΔpEC50 ([3]; 5 µM, 5 min, source Calbiochem) of -0.04 ± 0.11 M⁻¹. It also gave a ΔMax [3, 12] of 1 ± 3%, a ΔpEC50 [3, 12] of 0.15 ± 0.02 M⁻¹ and a ΔMax [3, 13] of 2 ± 2%. The ΔpEC50 [3, 13] was 0.10 ± 0.05 M⁻¹, the ΔMax [3, 14] was 1 ± 2% and the ΔpEC50 [3, 14] was 0.12 ± 0.03 M. The “effect on IP3-evoked Ca^2+ release” value [3, 17] was “no significant effect”, the “effect on Ca^2+ content of the stores” value ([4]; 5 μM purified Xestospongin C) was “no significant effect” and the “effect on Ca^2+ release evoked by IP3” value ([5]; Xestospongin C 5 μM) was “no effect”. The “effect on Ca^2+ content of the intracellular stores” value ([6]; Xestospongin C 5 μM) was “no effect”, the “effect on Ca^2+ signals evoked by carbachol” value [7] was “no significant effect” and the “effect on carbachol-evoked Ca^2+ signals” value [8] was “substantial, though incomplete, inhibition”. The IC50 [9] was 358 nM.
